The text below walks through data of paper PMC4774911, “Biochemical Screening of Five Protein Kinases from Plasmodium falciparum against 14,000 Cell-Active Compounds” (PLoS ONE, 2016).

Test [1] concerns 3D7 PFLDH. Details: method as in F.J. Gamo et al., Nature 2010; concentration or dose not given beside the values. The settings on record: downloaded from ChEMBL, ref F.J. Gamo et al., Nature 2010; cited from earlier work.
The target in test [2] is PKG (Plasmodium falciparum, UniProt Q8I719). Nature of the test: PKG IC50 (supplementary data file). Format: biochemical. The source says: Supplement pone.0149996.s003.xls, sheet "combined_1_sorted"
Test [3] concerns the target STK38L (Homo sapiens, UniProt Q9Y2H1). Put plainly: biochemical.
Test [4] deals with BMX (Homo sapiens, UniProt P51813). Put plainly: biochemical.
In test [5] the target is PRKACA (Homo sapiens, UniProt P17612). Put plainly: biochemical.
Test [6] concerns the target MAPKAPK3 (Homo sapiens, UniProt Q16644). Put plainly: biochemical.
Test [7] deals with PIK3C3 (Homo sapiens, UniProt Q8NEB9). Put plainly: biochemical.
The target of test [8] is KIT (Homo sapiens, UniProt P10721). Put plainly: biochemical.
Test [9] deals with MAST3 (Homo sapiens, UniProt O60307). Put plainly: biochemical. Details: endogenous in cells; host or cells: K562 cell extract; species or system K562 (extract); replicate k of n = 2 (each experiment ID is one independent experiment; two experiment IDs per compound). The settings on record: read-out: KDapp.
The target in test [10] is AAK1 (Homo sapiens, UniProt Q2M2I8). Nature of the test: biochemical. Details: endogenous in cells; host or cells: K562 cell extract; species or system K562 (extract); replicate k of n = 2 (each experiment ID is one independent experiment; two experiment IDs per compound). The settings on record: read-out: KDapp.
AAK1, sequence (Q2M2I8 whole entry): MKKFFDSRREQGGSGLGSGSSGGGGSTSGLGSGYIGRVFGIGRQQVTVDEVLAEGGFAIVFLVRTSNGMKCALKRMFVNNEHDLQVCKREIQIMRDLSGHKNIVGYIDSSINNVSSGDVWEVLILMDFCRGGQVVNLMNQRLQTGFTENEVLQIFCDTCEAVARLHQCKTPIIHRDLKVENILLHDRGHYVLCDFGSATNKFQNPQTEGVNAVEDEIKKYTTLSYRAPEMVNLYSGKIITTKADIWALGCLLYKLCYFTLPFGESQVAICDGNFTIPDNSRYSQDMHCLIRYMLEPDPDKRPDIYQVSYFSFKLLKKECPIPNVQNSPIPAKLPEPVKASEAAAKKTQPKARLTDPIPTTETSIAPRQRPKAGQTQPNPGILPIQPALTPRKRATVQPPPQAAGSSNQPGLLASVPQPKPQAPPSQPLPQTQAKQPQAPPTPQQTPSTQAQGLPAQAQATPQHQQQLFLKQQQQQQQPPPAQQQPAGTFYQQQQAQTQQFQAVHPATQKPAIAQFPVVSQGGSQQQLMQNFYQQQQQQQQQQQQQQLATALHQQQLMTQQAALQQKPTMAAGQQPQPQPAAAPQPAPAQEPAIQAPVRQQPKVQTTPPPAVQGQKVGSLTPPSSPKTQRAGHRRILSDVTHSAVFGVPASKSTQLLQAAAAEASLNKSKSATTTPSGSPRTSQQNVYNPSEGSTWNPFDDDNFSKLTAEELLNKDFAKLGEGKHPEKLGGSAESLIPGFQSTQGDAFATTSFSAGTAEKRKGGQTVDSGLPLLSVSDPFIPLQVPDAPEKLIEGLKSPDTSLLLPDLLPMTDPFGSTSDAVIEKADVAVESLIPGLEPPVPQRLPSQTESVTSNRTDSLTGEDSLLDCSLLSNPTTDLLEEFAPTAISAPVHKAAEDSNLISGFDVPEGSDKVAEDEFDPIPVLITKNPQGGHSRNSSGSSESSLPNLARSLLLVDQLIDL
The target in test [11] is T1, ULK1 (Homo sapiens, UniProt O75385).
T1 sequence (O75385 1-1050): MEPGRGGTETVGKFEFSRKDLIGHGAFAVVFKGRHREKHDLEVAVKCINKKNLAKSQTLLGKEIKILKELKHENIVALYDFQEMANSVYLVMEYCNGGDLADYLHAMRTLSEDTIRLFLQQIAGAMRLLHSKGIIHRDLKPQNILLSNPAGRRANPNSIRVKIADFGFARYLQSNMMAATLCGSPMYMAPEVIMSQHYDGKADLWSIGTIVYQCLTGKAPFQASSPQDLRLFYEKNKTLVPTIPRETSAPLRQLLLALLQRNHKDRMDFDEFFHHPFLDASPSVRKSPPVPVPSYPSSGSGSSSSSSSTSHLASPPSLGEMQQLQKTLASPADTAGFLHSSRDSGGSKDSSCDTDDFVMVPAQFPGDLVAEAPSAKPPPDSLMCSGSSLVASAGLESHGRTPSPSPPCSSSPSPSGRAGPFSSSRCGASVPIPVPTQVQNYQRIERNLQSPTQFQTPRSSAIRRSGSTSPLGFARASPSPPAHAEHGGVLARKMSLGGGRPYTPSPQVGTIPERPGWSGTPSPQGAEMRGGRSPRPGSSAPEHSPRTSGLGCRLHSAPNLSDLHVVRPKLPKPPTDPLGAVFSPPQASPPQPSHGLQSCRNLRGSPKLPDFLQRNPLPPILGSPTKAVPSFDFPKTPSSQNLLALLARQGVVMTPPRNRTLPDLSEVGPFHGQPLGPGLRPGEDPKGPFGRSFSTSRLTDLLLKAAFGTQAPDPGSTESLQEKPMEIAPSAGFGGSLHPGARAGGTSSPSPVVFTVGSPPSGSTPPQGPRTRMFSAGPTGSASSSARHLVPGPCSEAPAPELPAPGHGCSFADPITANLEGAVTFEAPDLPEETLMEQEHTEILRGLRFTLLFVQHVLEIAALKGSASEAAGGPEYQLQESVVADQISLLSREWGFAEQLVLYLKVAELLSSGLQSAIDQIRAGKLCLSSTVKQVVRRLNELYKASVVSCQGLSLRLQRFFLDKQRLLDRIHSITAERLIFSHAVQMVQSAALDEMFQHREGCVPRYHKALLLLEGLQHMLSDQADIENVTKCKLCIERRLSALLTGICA
Put plainly: biochemical. Details: endogenous in cells; host or cells: K562 cell extract; species or system K562 (extract); replicate k of n = 2 (each experiment ID is one independent experiment; two experiment IDs per compound). The settings on record: read-out: KDapp.

The target of test [12] is TNK2 (Homo sapiens, UniProt Q07912). Nature of the test: Kinobead competition assay in K562 extract: TNK2.
TNK2, sequence (Q07912 whole entry): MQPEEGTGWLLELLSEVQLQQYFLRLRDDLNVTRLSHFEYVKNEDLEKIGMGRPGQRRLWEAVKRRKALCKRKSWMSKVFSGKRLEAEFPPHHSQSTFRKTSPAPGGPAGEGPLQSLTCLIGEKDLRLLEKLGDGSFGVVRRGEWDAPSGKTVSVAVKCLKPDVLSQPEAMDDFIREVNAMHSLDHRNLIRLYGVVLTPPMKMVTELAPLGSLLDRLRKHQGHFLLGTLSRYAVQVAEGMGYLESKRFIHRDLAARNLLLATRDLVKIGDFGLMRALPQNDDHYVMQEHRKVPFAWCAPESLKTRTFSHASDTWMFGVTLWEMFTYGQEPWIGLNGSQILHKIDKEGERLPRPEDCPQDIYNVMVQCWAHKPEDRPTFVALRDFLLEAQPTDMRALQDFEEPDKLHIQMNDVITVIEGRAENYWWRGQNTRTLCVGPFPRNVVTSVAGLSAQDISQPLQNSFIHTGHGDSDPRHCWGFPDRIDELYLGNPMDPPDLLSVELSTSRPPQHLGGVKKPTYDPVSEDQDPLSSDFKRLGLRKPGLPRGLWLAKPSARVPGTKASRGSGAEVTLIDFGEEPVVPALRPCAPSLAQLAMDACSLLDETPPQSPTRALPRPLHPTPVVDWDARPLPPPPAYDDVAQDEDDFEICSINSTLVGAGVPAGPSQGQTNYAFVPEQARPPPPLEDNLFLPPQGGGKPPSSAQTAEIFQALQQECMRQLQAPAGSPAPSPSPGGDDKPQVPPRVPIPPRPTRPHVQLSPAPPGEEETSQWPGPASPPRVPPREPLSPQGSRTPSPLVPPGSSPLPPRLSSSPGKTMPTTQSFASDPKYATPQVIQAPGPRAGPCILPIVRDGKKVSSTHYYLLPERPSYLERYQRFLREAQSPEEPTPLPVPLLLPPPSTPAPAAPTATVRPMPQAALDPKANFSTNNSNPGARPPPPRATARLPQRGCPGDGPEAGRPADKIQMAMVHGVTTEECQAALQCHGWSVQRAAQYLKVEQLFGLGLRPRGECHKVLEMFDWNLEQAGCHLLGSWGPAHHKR
Experimental: Kinobeads were prepared as described [25, 26]. […] Briefly, Kinobeads were washed and equilibrated in lysis buffer (50 mM Tris-Cl, pH 7.4, 0.4% Igepal-CA630, 1.5 mM MgCl2, 5% Glycerol, 150 mM NaCl, 25 mM NaF, 1 mM Na3VO4, 1 mM DTT, and 1 complete EDTA-free protease inhibitor tablet (Roche) per 25 ml). […] Digestion, labeling with TMT isobaric mass tags, peptide fractionation, and mass spectrometric analyses were performed essentially as described [27]. Criteria for protein quantification were: a minimum of 2 sequence assignments matching to unique peptides was required (FDR for quantified proteins <<0.1%), Mascot ion score > 15, signal to background ratio of the precursor ion > 4, signal to interference > 0.5 [28]. Reporter ion intensities were multiplied by ion accumulation time, yielding an area value proportional to the number of reporter ions present in the mass analyzer. Peptide fold changes were corrected for isotope purity as described and adjusted for interference caused by co-eluting nearly isobaric peaks as estimated by the signal-to-interference measure [29]. Protein quantification was achieved using a sum-based bootstrap algorithm [30]. Apparent dissociation constants were determined by taking into account the protein depletion by the beads as described [27].
Kinobeads were incubated with K562 cell extract either in the presence of vehicle (DMSO) or TCAMS compound, respectively (20 μM-0.03 μM). Protein kinases captured by the beads (140–150 kinases per experiment) were quantified following tryptic digestion, isobaric peptide tagging, and LC-MS/MS analysis. Kinases were identified as potential targets by virtue of their reduced capture in the presence of excess TCAMS compounds. Apparent dissociation constants (Kd’s) were calculated from the extent to which capture of each kinase was reduced at each compound concentration.
The target in test [13] is ILK (Homo sapiens, UniProt Q13418). Nature of the test: biochemical.
Test [14] addresses LRRK2 (Homo sapiens, UniProt Q5S007). Nature of the test: biochemical.
The target of test [15] is HIPK2 (Homo sapiens, UniProt Q9H2X6). Nature of the test: biochemical.
Test [16] has as its target HIPK1 (Homo sapiens, UniProt Q86Z02). Put plainly: biochemical.
The target in test [17] is PLK1 (Homo sapiens, UniProt P53350). Nature of the test: biochemical.
In test [18] the target is TAOK1 (Homo sapiens, UniProt Q7L7X3). Nature of the test: biochemical.
Test [19] deals with RPS6KB1 (Homo sapiens, UniProt P23443). Put plainly: biochemical.
The target in test [20] is PRKCI (Homo sapiens, UniProt P41743). Nature of the test: biochemical.
The target of test [21] is ARAF (Homo sapiens, UniProt P10398). Nature of the test: biochemical.
Test [22] deals with P. falciparum DD2. Details: method as in ChEMBL. The following applies: ref ChEMBL; cited from earlier work.
The mark [23] stands for this setting: TNK2, K-562 extract, conc. series 20.0-0.0uM, channel assignment not given.

Usually IC50 stands for the concentration at which inhibition is half-maximal.

MAPKAPK3, sequence (Q16644 whole entry): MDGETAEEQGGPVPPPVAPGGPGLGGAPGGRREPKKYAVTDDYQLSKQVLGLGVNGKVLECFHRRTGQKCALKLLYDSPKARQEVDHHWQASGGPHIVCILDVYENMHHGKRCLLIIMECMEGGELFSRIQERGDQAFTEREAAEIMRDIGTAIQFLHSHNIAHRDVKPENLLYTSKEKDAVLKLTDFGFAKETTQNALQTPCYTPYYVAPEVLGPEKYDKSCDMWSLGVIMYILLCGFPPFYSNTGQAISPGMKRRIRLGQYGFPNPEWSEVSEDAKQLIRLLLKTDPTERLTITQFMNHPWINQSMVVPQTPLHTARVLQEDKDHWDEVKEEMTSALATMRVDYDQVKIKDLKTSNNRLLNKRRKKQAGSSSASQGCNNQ
LRRK2, sequence (Q5S007 whole entry): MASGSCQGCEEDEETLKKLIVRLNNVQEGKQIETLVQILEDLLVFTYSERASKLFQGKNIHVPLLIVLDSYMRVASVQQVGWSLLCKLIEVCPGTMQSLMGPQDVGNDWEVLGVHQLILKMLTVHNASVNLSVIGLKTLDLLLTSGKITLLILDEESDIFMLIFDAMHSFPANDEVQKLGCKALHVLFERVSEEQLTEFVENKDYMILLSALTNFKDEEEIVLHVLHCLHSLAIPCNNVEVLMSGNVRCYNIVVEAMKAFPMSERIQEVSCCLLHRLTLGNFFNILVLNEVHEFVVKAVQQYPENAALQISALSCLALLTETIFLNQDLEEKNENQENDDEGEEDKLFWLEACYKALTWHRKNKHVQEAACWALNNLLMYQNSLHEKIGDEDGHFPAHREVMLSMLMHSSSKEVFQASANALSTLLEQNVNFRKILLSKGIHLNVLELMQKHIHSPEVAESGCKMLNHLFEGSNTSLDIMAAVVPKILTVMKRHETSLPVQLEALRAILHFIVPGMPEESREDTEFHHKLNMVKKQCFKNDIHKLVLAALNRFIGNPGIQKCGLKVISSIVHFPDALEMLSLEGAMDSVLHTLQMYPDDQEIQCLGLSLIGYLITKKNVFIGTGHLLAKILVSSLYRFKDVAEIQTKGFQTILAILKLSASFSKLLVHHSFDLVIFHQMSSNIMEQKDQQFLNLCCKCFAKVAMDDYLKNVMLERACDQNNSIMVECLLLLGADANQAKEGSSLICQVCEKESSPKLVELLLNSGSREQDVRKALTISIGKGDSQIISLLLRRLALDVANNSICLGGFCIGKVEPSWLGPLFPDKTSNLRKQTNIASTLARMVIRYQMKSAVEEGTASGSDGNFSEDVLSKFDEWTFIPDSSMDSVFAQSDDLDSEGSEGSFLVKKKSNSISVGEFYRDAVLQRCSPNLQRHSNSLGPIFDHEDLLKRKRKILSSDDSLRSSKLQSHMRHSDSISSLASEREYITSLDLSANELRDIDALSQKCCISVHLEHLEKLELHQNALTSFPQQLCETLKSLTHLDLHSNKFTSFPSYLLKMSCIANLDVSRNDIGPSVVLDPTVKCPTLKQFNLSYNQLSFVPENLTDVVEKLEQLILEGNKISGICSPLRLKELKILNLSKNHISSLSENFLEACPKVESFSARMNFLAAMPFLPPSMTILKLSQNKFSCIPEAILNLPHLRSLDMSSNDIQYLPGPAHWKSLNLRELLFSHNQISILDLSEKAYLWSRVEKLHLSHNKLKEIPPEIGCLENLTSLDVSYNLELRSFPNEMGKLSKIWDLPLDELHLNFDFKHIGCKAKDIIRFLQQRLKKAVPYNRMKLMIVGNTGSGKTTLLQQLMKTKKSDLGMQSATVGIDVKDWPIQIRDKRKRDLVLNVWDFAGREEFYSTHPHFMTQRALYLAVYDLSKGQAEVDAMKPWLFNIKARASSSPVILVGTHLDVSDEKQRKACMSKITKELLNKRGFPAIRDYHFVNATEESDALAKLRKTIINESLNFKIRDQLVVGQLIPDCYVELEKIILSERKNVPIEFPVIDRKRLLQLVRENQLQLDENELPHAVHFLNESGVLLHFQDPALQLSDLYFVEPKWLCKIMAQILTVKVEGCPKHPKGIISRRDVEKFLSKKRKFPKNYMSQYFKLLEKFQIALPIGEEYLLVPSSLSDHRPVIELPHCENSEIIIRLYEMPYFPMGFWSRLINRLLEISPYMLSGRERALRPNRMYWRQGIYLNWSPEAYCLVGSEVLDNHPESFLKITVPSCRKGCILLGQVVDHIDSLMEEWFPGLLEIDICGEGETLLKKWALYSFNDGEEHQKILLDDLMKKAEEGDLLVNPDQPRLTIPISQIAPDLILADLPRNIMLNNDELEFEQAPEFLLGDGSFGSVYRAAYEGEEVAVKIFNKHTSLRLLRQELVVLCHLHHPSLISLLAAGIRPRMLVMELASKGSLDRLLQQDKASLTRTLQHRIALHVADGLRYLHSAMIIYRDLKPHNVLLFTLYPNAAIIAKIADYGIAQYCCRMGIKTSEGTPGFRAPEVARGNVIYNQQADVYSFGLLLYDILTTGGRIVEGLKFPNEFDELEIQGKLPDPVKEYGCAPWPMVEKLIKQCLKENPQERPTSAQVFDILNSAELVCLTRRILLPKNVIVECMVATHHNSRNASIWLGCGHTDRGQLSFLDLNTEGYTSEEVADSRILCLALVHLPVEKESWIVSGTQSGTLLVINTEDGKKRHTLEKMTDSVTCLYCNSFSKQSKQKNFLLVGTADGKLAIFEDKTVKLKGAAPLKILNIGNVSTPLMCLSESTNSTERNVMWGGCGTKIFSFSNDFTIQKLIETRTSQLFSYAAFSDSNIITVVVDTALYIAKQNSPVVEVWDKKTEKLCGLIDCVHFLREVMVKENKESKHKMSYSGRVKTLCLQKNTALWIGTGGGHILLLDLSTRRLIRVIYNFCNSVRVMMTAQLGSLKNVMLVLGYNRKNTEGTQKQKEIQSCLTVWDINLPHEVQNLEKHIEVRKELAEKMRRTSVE

With `CN1CCN(c2ccc(Nc3ncc(C#N)c(Nc4ccccc4C(N)=O)n3)cc2)CC1.Cl` [TCMDC-134116], in test [1], the PCT_INHIB_3D7_PFLDH is 0%. In addition, the IC50 in test [2] was 103 nM; in [3], 600 nM; in test [4] it was 620 nM; in test [5], 1500 nM; in test [6] it was > 20000 nM; in test [7], 1100 nM. In test [8], this compound showed an IC50 of 1300 nM. Besides, the Kd was determined as 73.1 nM in test [9], 36.7 nM in test [10] and 95 nM in test [11].

Regarding `Cl.NCC1(c2nc(-c3ccc(Cl)c(O)c3)c(-c3ccncc3)[nH]2)CCCCC1` [TCMDC-141154], the IC50 in test [12], in test [13], in test [14], in [15], in [16] and in test [17] was > 20000 nM each time. For the same compound, the “abundance relative to vehicle TMT126” value in test [12] (TNK2, K-562 extract, conc. series 20.0, 4.0, 0.8, 0.16, 0.032, 0.0uM, channel assignment not given) came to 0.90. Besides, the “abundance relative to vehicle TMT127L” value in test [12] (setting [23]) turned out to be 1.02. Besides, the “abundance relative to vehicle TMT128H” value in test [12] (setting [23]) stood at 1.06. In addition, in [12] (setting [23]), the “abundance relative to vehicle TMT129L” value came out at 1.03. The “abundance relative to vehicle TMT130H” value in test [12] (setting [23]) is 1.20. In addition, the Hill in test [12] (TNK2, kinobead competition curve) was found to be 1.

`CN(C)CC(O)COc1ccc(Nc2ncc([N+](=O)[O-])c(Nc3ccccc3O)n2)cc1.O=C(O)C(F)(F)F` (stereo not shown) [TCMDC-141399]: the IC50 was 6100 nM in [18], > 20000 nM in test [19], > 20000 nM in test [20] and > 20000 nM in [21]. In addition, in [22], the PCT_INHB_DD2 is listed as 20.
